From article PMC7356589, “Hybrid Gold(I) NHC-Artemether Complexes to Target Falciparum Malaria Parasites” (Molecules, 2020)
Like-named read-outs stand apart in the source and are kept apart here.

Columns and labels:
Vero cell line = experiment: Cytotoxicity on Vero cells (MTT); assay type: cell-based, monkey; details: for Selectivity Index Vero Cells/P. falciparum: cytotoxic/antiplasmodial activity ratio
Method: (§1) The cells were cultured in MEM medium (Dutscher, Brumath, France) supplemented with 10% fetal bovine serum (Dutscher), 0.7 mM glutamine and 100 μg/mL gentamicin. The cells were seeded at 10^4 cells per well in a 96-well plates and incubated during 24 h. Then, cells were incubated for additional 48 h with the drugs. […] Subsequently, DMSO was added to the wells containing the cells and MTT to dissolve the formed crystals. The plates were then read to determine the absorbance at wavelength of 540 nm (µQuant, BioTek, Illkirch, France). Cell proliferation was calculated from at least three independent experiments using GraphPad Prism software 7 (GraphPad Software, San Diego, CA, USA). The cytotoxic/antiplasmodial activity ratio corresponds to the selectivity index.

[1] = Cytotoxicity on Vero cells (MTT); assay type: cell-based, monkey; details: monkey; Vero cells, 48 h, MTT; read-out: Cytotoxicity on Vero Cells IC50 ± SEM
Method: as §1

[2] = system: P. falciparum strain F32-TEM (F32-Tanzania); experiment: In vitro antiplasmodial activity (SYBR Green fluorescence and [3H] hypoxanthine assays); assay type: cell-based, Plasmodium falciparum; details: strain F32-Tanzania (F32-TEM), mean of at least 4 experiments, SYBR Green and radioactivity assays, read-out: Antiplasmodial Activity on P. falciparum IC50 ± SEM
Method: In vitro antiplasmodial activities of the synthesized hybrid molecules were evaluated against the P. falciparum strain F32-TEM (corresponding to the parental strain F32-Tanzania). Each molecule was tested at least in three independent experiments (except Aubis(5-Bn), tested twice) by a SYBR Green Fluorescence assay but also at least once with the standard chemosensitivity assay recommended by the WHO and based on the incorporation of [^3H] hypoxanthine.
For the SYBR Green Fluorescence assay, ring stage parasites were treated with the drugs for 48 h. Then, the pellets were washed twice with PBS and frozen at −20 °C. Thawed plates were incubated for 2 h at room temperature with the SYBR Green (Thermo-Fisher, Illkirch, France) lysis buffer (20 mm Tris base pH 7.5, 5 mm EDTA, 0.008% w/v saponin, 0.08% w/v Triton X-100). The plates were then read using a fluorescence plate reader (FLx800, BioTek, Illkirch, France) at an excitation wavelength of 485 nm and 535 nm for the emission wavelength. The IC50 values (concentration inhibiting 50% of the parasite’s growth) were determined using GraphPad Prism software 7 (GraphPad Software, San Diego, CA, USA).
For [^3H] hypoxanthine assay, ring stage parasites were incubated with the drug dilutions for 24 h, then, [^3H] hypoxanthine (50 μL/0.25 μCi; Perkin-Elmer, Courtaboeuf, France) was added for another 24 h period. After that, plates were frozen at −20 °C. The next step is to thaw the plates and to collect the nucleic acids. Tritium incorporation was then determined thanks to a β-counter (Perkin-Elmer, Courtaboeuf, France).
The antiplasmodial activities reported in Table 1 correspond thus to the mean of IC50 values from at least 4 independent experiments acquired by the two methods, SYBR Green and radioactivity.

[3] = system: P. falciparum F32-ART (artemisinin-resistant); experiment: Recrudescence assay after 48 h drug exposure, F32-ART; assay type: cell-based, Plasmodium falciparum; details: 48 h exposure
Method: (§2) The Plasmodium falciparum F32-ART and F32-TEM parasite lines, resistant and sensitive to artemisinins respectively, were cultured in vitro in type O human erythrocytes (Etablissement Français du sang (EFS), Toulouse, France), diluted to 2% hematocrit, in RPMI-1640 medium (GIBCO, Illkirch, France) and supplemented with 5% Human Serum AB (EFS, Toulouse, France) at 37 °C and 5% CO2 [33]. Every other day and before each experiment, P. falciparum F32-ART and F32-TEM parasites were synchronized at ring stage using 5% D-sorbitol solution [34].
(§3) P. falciparum strains F32-ART and F32-TEM, synchronized at ring stage parasites at 3% parasitemia and 2% hematocrit have undergone a 48 h-treatment with the drugs to be tested. The parasites were then washed with RPMI-1640 medium and re-cultivated in drug-free culture conditions with 10% human serum. The parasitemia was then monitored daily to determine the time required for each parasite culture to recover the initial parasitemia of 3%. If no parasites were seen up to 30 days, the parasites were considered as “not recrudescent” [9, 15]. The drug doses were chosen in order to discriminate the phenotype response between the artemisinin-resistant and the -sensitive strains. A range from 1-fold to >100-fold the antiplasmodial IC50 value previously found has been tested to determine the most appropriate drug dose to use in this recrudescence assay.

[4] = system: P. falciparum F32-ART and F32-TEM strains; experiment: Recrudescence assay, comparison of F32-TEM and F32-ART (cross-resistance with artemisinin); assay type: cell-based, Plasmodium falciparum; details: for Mean ± SEM Difference of Recrudescence Days between F32-TEM and F32-ART: 48 h exposure
Method: Three hybrid molecules with the best selectivity indexes in each series, i.e., Aubis(3-Me) (14), Aubis(4-Me) (19) and Aubis(5-Me) (23), were evaluated in vitro for their efficacy in a context of resistance to artemisinins. For that, the comparison of the recovery capacity between the strain F32-ART, artemisinin-resistant, and its twin artemisinin-sensitive F32-TEM was evaluated after 48 h-treatment with the molecule to be tested via the recrudescence assay. When ring-stage resistant parasites are exposed to artemisinin, most of them die, but a small sub-set of parasites is able to escape the treatment by a cell cycle arrest, called quiescence mechanism. This phenomenon is characterized by a halt of DNA synthesis, which explains the very low IC50 values obtained with all artemisinins even for the artemisinin-resistant strain F32-ART [9, 15, 30]. Therefore, the standard in vitro chemosensitivity assay, based on the measurement of DNA levels to estimate the inhibition of the parasite proliferation, is irrelevant to study the resistance to artemisinins and evaluate possible cross-resistances.
as §3

[5] = system: P. falciparum F32-TEM (artemisinin-sensitive); experiment: Recrudescence assay after 48 h drug exposure, F32-TEM; assay type: cell-based, Plasmodium falciparum; details: 48 h exposure
Method: as §2, §3

[6] = Plasmodium falciparum, F32, 48 h

Compound	Selectivity Index Vero Cells/P. falciparum (Vero cell line)	IC50 at 48 h [1] [nM]	IC50 [2, 6] [nM]	IC50 ([2]; 48 h) [nM]	other results
Cc1cc(C)c(-[n+]2ccn(CCCCCO[C@H]3O[C@@H]4O[C@@]5(C)CCC6[C@H](C)CCC([C@H]3C)[C@]64OO5)c2)c(C)c1 (stereo partly drawn) [L5-Mes, 3′-Mesityl-1′-[10β-(22-pentoxy)dihydroartemisinin]1H-imidazol-3-ium bromide]	255	25000	< 100	98 ± 24	–
C[C@@H]1CCC2[C@@H](C)[C@@H](OCCCCCn3cc[n+](Cc4ccccc4)c3)O[C@@H]3O[C@@]4(C)CCC1[C@@]23OO4 (stereo partly drawn) [L5-Bn, 3′-Benzyl-1′-[10β-(22-pentoxy)dihydroartemisinin]1H-imidazol-3-ium bromide]	10	1000	< 100	98 ± 26	–
C[C@@H]1CC[C@H]2[C@@H](C)C(=O)O[C@@H]3O[C@@]4(C)CC[C@@H]1[C@]32OO4 [Artemisinin, reference compound]	7 000	130000	18 ± 2	–	Median (range) Recrudescence Days, F32-ART ([3]; dose 18 µM): 9.5 (6–17) days; Mean ± SEM Difference of Recrudescence Days between F32-TEM and F32-ART ([4]; dose 18 µM): 9.7 ± 0.3 days; Mean ± SEM Difference of Recrudescence Days between F32-TEM and F32-ART ([4]; dose 18 µM, listed as artemisinin): 9.7 days; Median (range) Recrudescence Days, F32-TEM ([5]; dose 18 µM): 18.5 (17–>30) days
C[C@@H]1CCC2[C@@H](C)[C@@H](OCCCn3cc[n+](C)[c]3[Au-][c]3n(CCCO[C@H]4O[C@@H]5O[C@@]6(C)CCC7[C@H](C)CCC([C@H]4C)[C@]75OO6)cc[n+]3C)O[C@@H]3O[C@@]4(C)CCC1[C@@]23OO4.O=[N+]([O-])[O-] (stereo partly drawn) [Aubis(3-Me)]	–	–	–	35 ± 8	Median (range) Recrudescence Days, F32-ART ([3]; dose 200 nM): 7 (7–13) days; Median (range) Recrudescence Days, F32-ART ([3]; dose 500 nM): 8 days; IC50 (Vero cell line; Vero cells, 48 h, MTT, read-out: Cytotoxicity on Vero Cells IC50 ± SEM): 5000 nM; Mean ± SEM Difference of Recrudescence Days between F32-TEM and F32-ART ([4]; dose 200 nM): 4.6 ± 1.2 days; Mean ± SEM Difference of Recrudescence Days between F32-TEM and F32-ART ([4]; dose 500 nM): 16 days; Cross-resistance with artemisinin (result in words) ([4]; recrudescence assay, F32-ART vs F32-TEM): cross-resistance; Median (range) Recrudescence Days, F32-TEM ([5]; dose 200 nM): 14 (11–16) days; Median (range) Recrudescence Days, F32-TEM ([5]; dose 500 nM): 24 days
C[C@@H]1CCC2[C@@H](C)[C@@H](OCCCBr)O[C@@H]3O[C@@]4(C)CCC1[C@@]23OO4 (stereo partly drawn) [DHA-C3, 10β-(20-Bromopropoxy)dihydroartemisinin]	294	2500	8.5 ± 3	–	–
